Assay results published in patent publication US20240158447A1, “PEPTIDES FOR USE IN THE TREATMENT OR PREVENTION OF MYOCARDIAL DAMAGE” (THE UNIVERSITY OF WESTERN AUSTRALIA, priority 2020, published 2024).

How the values were obtained:
[1] = test system: wild type cardiac myocytes; test: Intracellular superoxide (DHE) after H2O2 in cardiac myocytes; format: cell-based, mouse; conditions: 20 min incubation with 0.5-1 μM peptide; 30 μM H2O2 5 min; FIG. 3(b)
Experimental: Adult male C57BL/6J mice were anesthetized with pentobarbitone sodium (240 mg/kg) via intraperitoneal injection prior to excision of the heart. Ventricular myocytes were isolated. Mouse hearts were cannulated onto a Langendorff apparatus via the aorta and perfused retrogradely with Krebs-Henseleit Buffer (KHB) containing (in mM): 120 NaCl, 25 NaHCO3, 4.8 KCl, 2.2 MgSO4, 1.2 NaH2PO4 and 11 glucose (pH=7.35 with O2/CO2 at 37° C.) for 4 min at 37° C. Hearts were then perfused with KHB supplemented with 2.4 mg/ml collagenase B for 3 min, then 8 min perfusion in the presence of 40 μM calcium. Following perfusion, aorta and atria were removed, and ventricles gently teased apart and triturated to dissociate myocytes into suspension. […]
(§1) All in vitro studies were performed in freshly isolated myocytes at 37° C. […] Following a 20 min incubation with 0.5-1 μM AID(S)-TAT, AID-TAT, peptide 6 or peptide 7, fluorescent signal of individual myocytes was quantified using Metamorph 6.3 to measure signal intensity of manually traced cell regions. […]
Superoxide generation was assessed in cardiac myocytes using the fluorescent indicator dihydroethidium (DHE, 5 μM, 515-560 nm ex filter, 590 long pass em, Merck). […] Fluorescence was reported as percentage change in the slope of the signal measured at 20-40 min (treatment) over 1-10 min (pre-treatment).

[2] = test system: wild type cardiac myocytes; test: Mitochondrial membrane potential (JC-1) after H2O2 in cardiac myocytes; format: cell-based, mouse; conditions: 20 min incubation with 0.5-1 μM peptide; calcium-free; 30 μM H2O2 5 min; FIG. 3(c)
Experimental: Adult male C57BL/6J mice were anesthetized with pentobarbitone sodium (240 mg/kg) via intraperitoneal injection prior to excision of the heart. Ventricular myocytes were isolated. Mouse hearts were cannulated onto a Langendorff apparatus via the aorta and perfused retrogradely with Krebs-Henseleit Buffer (KHB) containing (in mM): 120 NaCl, 25 NaHCO3, 4.8 KCl, 2.2 MgSO4, 1.2 NaH2PO4 and 11 glucose (pH=7.35 with O2/CO2 at 37° C.) for 4 min at 37° C. Hearts were then perfused with KHB supplemented with 2.4 mg/ml collagenase B for 3 min, then 8 min perfusion in the presence of 40 μM calcium. […]
as §1
Mitochondrial membrane potential (Ψm) was monitored in cardiac myocytes by assessing alterations in 5,5′,6,6′-tetrachloro-1,1′,3,3′-tetraethylbenzimidazolylcarbocyanine iodide fluorescence (JC-1: 200 nM, ex 480 nm, em 580/535 nm, Molecular Probes). […] Ratiometric 580/535 nm fluorescent signal was quantified and reported as a percentage from the baseline pre-treatment average. […]

[3] = test system: cTnI-G203S mutant myocytes; test: Flavoprotein oxidation response to BayK(−), cTnI-G203S myocytes (Example 10); format: cell-based, mouse; conditions: 0.5 μM peptide, 10 μM BayK(−), FIG. 10D
Experimental: In this experiment wt myocytes were pre-exposed to 0.1, 0.5 or 1 μM for 20 min and assessed changes in flavoprotein oxidation and ψm.
Measurement of mitochondrial flavoprotein oxidation: Flavoprotein autofluorescence was used to measure flavoprotein oxidation based on previously described methods (Yaniv Y, Juhaszova M, Lyashkov A E, Spurgeon H A, Sollott S J, Lakatta E G. Ca2+-regulated-cAMP/PKA signaling in cardiac pacemaker cells links ATP supply to demand. J Mol Cell Cardiol. 2011; 51(5):740-8). […] Fluorescent images were acquired at 1 min intervals with 200 ms exposure. Metamorph 6.3 (Version 7.10.3) was used to quantify the signal by manually tracing myocytes. […] Fluorescence values recorded over 5 min before and 5 min after addition of drugs were averaged and alterations in fluorescent ratios reported as the percentage increase from the basal average. FCCP (50 μM) and NaCN (40 mM) was added at the end of each experiment to achieve a respective maximal and minimal fluorescence value indicative of maximal and minimal flavoprotein oxidation.
The ICA-L agonist BayK(−) was used to activate the channel and assess mitochondrial function. […] FIG. 10 presents the mean+/−SEM of flavoprotein fluorescence from cTnI.2 wt and cTnI-G2035 mutant myocytes before and after exposure to 10 μM BayK(−) in the presence of 1 μM AID(S)-TAT, and increasing concentrations of variant peptides as indicated. […]

cTnI-G203S mice = test: Heart weight to body weight ratio of treated cTnI-G203S mice; format: in vivo, mouse; conditions: 5 μM, 3×/wk/5 wk; compared with cTnI-G203S AID(S)-TAT; FIG. 16
Experimental: The effect of treatment of the mice with peptides on the development of hypertrophy assessed as changes in heart weight to body weight ratio was also examined. […] FIG. 16 presents the mean±SEM of heart weight to body weight ratio measurements from wt and cTnI-G203S mice treated with 10 μM AID(S)-TAT, 10 μM AID-TAT, 5 μM AIDP7-TAT, 5 μM AIDP14-TAT, 5 μM AIDP15-TAT or 5 μM AIDP16-TAT. n=number of mice as indicated. *P<0.05, **P<0.01 compared with cTnI-G203S AID(S)-TAT as determined by Kruskal-Wallis tests.

AIDP7-TAT: QQQEEDLKGYLDWITQAE with TAT sequence
H2O2 induced superoxide production (DHE) [1]: reduced the generation of superoxide in a statistically significant manner | mitochondrial membrane potential (JC-1) [2]: reduced the mitochondrial membrane potential | BayK(−) induced increase in flavoprotein oxidation [3]: significantly attenuated increases in flavoprotein oxidation resulting from BayK(−) exposure | heart weight to body weight ratio (cTnI-G203S mice): significantly decreased heart weight/body weight
